Measured values taken from patent US20240307386A1 (priority 2018, published 2024).
pKi: −log10 of the molar value.

Experiments:
5-HT2 receptor = assay: DOI-induced head twitch model in mice; type: in vivo; settings: p.o., 0.5 hr before s.c. DOI
[1] = tested on: NMDA receptor currents in mPFC neurons; assay: NMDA-induced currents in rat mPFC slices, whole-cell patch clamp; type: cell-based
Text: (§1) Combined administration of the antipsychotic, olanzapine, and the SSRI, fluoxetine, similarly induces rapid antidepressant activity in humans and animals (Tohen et al., 2010); likewise, combined application of olanzapine and fluoxetine is required to induce AMPA receptor currents in vitro.

[2] = tested on: AMPA receptor currents in mPFC neurons; assay: AMPA-induced currents in rat mPFC slices, whole-cell patch clamp; type: cell-based
Text: as §1

AKT (at Threonine 308) = assay: Phosphorylation of mTOR pathway proteins in rat PFC: AKT; type: in vivo; settings: 1 hour and 24 hours after one i.p. injection; ketamine 30 mg/kg, Formula A 3 mg/kg
mTOR (at Serine 2448) = assay: Phosphorylation of mTOR pathway proteins in rat PFC: mTOR; type: in vivo; settings: one i.p. injection; ketamine 30 mg/kg, Formula A 3 mg/kg
[3] = tested on: P70s6 kinase (at Threonine 389); assay: Phosphorylation of mTOR pathway proteins in rat PFC: P70s6 kinase; type: in vivo; settings: over 24 hours after one i.p. injection; ketamine 30 mg/kg, Formula A 3 mg/kg
mTORC1 signaling pathway = mTORC1 signaling pathway in mPFC of adult rats, dose range study; type: in vivo, rat; settings: Formula A 1 to 8 mg/kg i.p.; ketamine 30 mg/kg; 60 min, 90 min or 24 hours
[4] = Clinical studies in patients with acute exacerbated schizophrenia; type: in vivo, human; settings: 60 mg P.O. once daily, up to 28 days
Text: Social avoidance can be a critical and debilitating symptom in patients suffering from anxiety disorders, especially social anxiety disorder, as well as in patients suffering from traumatic anxiety disorders. Social avoidance is often one of the key determinants of whether a person with a severe anxiety disorder is capable of maintaining familial relationships or employment relationships. […] Negative symptoms of schizophrenia can be divided into two categories: emotional experience (e.g., emotional withdrawal, passive social withdrawal, active social avoidance) and emotional expression (e.g., blunted effect, poor rapport, lack of spontancity, and motor retardation). […] These are the symptoms that are most highly correlated with interpersonal functioning.

5-HT2A = 5-HT2A (Homo sapiens (Human), UniProt P28223)
D2 = D2 (Homo sapiens (Human), UniProt P14416)
[5] = 40-minute infusion, total dose 0.5 mg/kg; after 24 hours; cited from earlier work
[6] = bath applied 3-100 nM, 5 min later

O=C1CN2c3c(cccc3[C@@H]3CN(CCCOc4ccc(F)cc4)CC[C@@H]32)N1 [Example 1, (6bR,10aS)-8-(3-(4-fluorophenoxy)propyl)-6b,7,8,9,10,10a-hexahydro-1H-pyrido[3′,4′:4,5]pyrrolo[1,2,3-de]quinoxalin-2(3H)-one]
EC50 for reducing DOI-induced head twitches (5-HT2 receptor): 0.44 mg/kg

CN1CCN2c3c(cccc31)[C@@H]1CN(CCCC(=O)c3ccc(F)cc3)CC[C@@H]12 [Formula A, lumateperone]
NMDA-induced currents compared to control ([1]; 30 nM): ~150% | NMDA currents [1, 6]: enhanced | AMPA-induced currents compared to control ([2]; 30 nM, alone and with SCH 23390 (1 μM)): Substantially the same results | AMPA currents [2, 6]: enhanced | increase in phosphorylation of AKT at thr308 (AKT (at Threonine 308)): ~50% | change in mTOR phosphorylation (mTOR (at Serine 2448)): Neither ketamine nor the Compound of Formula A results in a change | p70s6K phosphorylation [3]: progressively increases | activation of mTORC1 signaling pathway in mPFC (p-Akt thr308, p-P70S6K) (mTORC1 signaling pathway): rapidly activates the mTORC1 signaling pathway | symptoms of emotional experience compared to placebo [4]: significant and unexpected improvement | pKi (5-HT2A): 8.00 | pKi (D2): 7.31

CNCCC(Oc1ccc(C(F)(F)F)cc1)c1ccccc1 (stereo not shown) [fluoxetine]
activity at 0.1 µM ([2]; Rattus norvegicus, Neuron, 100 nM fluoxetine, read-out: AMPA-induced current, % of control): ~90%

CNC1(c2ccccc2Cl)CCCCC1=O (stereo not shown) [ketamine]
increase in phosphorylation of AKT at thr308 (AKT (at Threonine 308)): ~50% | change in mTOR phosphorylation (mTOR (at Serine 2448)): Neither ketamine nor the Compound of Formula A results in a change | p70s6K phosphorylation [3]: transiently increase | activation of mTORC1 signaling pathway in mPFC (p-Akt thr308, p-P70S6K) (mTORC1 signaling pathway): rapidly activates the mTORC1 signaling pathway | ratings on the Hamilton Depression Rating Scale (HDRS) compared to placebo [5]: significantly improved

Cc1cc2c(s1)Nc1ccccc1N=C2N1CCN(C)CC1 [olanzapine]
activity at 0.003 µM ([2]; Rattus norvegicus, Neuron, 3 nM olanzapine alone, read-out: AMPA-induced current, % of control): ~100%
